Consider 21 compounds from patent US8859505B2, “Cysteine protease inhibitors” (Medivir UK Ltd, priority 2010, dated 2014).

Assay type in all cases: biochemical
One experiment has as its target human cathepsin L (Homo sapiens, UniProt P07711). Nature of the experiment: Cathepsin L Ki. Particulars: H-D-Val-Leu-Lys-AMC substrate, pH5.5; read-out: Ki Cat. L. The method, then:
The procedure above with the following amendments is used for the determination of Ki for cathepsin L.
The enzyme is commercially available human cathepsin L (for example Calbiochem). The substrate is H-D-Val-Leu-Lys-AMC available from Bahcem. The assay buffer is 100 mM sodium acetate 1 mM EDTA, pH5.5) The DMSO stock (10 mM in 100% DMSO) is diluted to 10% in assay buffer. Enzyme is prepared at 5 nM concentration in assay buffer plus 1 mM dithiothreitol just before use. 2 μL of 10 mM inhibitor made up in 100% DMSO is dispensed into row A. 10 μL of 50 μM substrate (=1/200 dilution of 10 mM stock in DMSO, diluted in assay buffer).
(§1) Potential inhibitors are screened using the above assay with variable concentrations of test compound. Reactions were initiated by addition of enzyme to buffered solutions of substrate and inhibitor. Ki values were calculated according to equation 1.
(§2) [formula] where v0 is the velocity of the reaction, V is the maximal velocity, S is the concentration of substrate with Michaelis constant of KM, and I is the concentration of inhibitor.

In the next experiment the target is T1, human cathepsin S (Homo sapiens, UniProt P25774).
T1 construct: made in house; host or cells: baculovirus expression system
Briefly: Cathepsin S Ki determination. Particulars: baculovirus-expressed enzyme, boc-Val-Leu-Lys-AMC substrate, pH 6.5; read-out: Ki Cat. S. As to the method: The assay uses baculovirus-expressed human cathepsin S and the boc-Val-Leu-Lys-AMC fluorescent substrate available from Bachem in a 384 well plate format, in which 7 test compounds can be tested in parallel with a positive control comprising a known cathepsin S inhibitor comparator.
280 μL/well of 12.5% DMSO are added to rows B-H of two columns of a 96 deep well polypropylene plate. 70 μL/well of substrate is added to row A. 2×250 μL/well of assay buffer (100 mM Na phosphate, 100 mM NaCl, pH 6.5) is added to row A, mixed, and double diluted down the plate to row H.
100 μL/well of assay buffer is added to columns 2-5 and 7-12 of 4 rows of a 96 well V bottom polypropylene plate. 200 μL/well of assay buffer is added to columns 1 and 6.
2 μl of each 10 mM test compound is added to a separate well on row A, columns 1-10. Add 90 μl assay buffer containing 1 mM DTT and 2 nM cathepsin S to each well of rows B-H and 180 μl to row A. Mix row A using a multichannel pipette and double dilute to row G. Mix row H and read in the fluorescent spectrophotometer. The readings are Prism data fitted to the competitive inhibition equation, setting S=100 μM and KM=100 μM to obtain an estimate of the up to a maximum of 100 μM.
The second test compound is added to column 6 of the top row, the third to column 1 of the second row etc. Add 1 μL of comparator to column 6 of the bottom row. Mix column 1 and double dilute to column 5. Mix column 6 and double dilute to column 10.
Using an 8-channel multistepping pipette set to 5×10 μL, distribute 10 μL/well of substrate to the 384 well assay plate. Distribute the first column of the substrate dilution plate to all columns of the assay plate starting at row A. The tip spacing of the multichannel pipette will correctly skip alternate rows. Distribute the second column to all columns starting at row B.
Using a 12-channel multistepping pipette set to 4×10 μL, distribute 10 μL/well of inhibitor to the 384 well assay plate. Distribute the first row of the inhibitor dilution plate to alternate rows of the assay plate starting at A1. The tip spacing of the multichannel pipette will correctly skip alternate columns. Similarly, distribute the second, third and fourth rows to alternate rows and columns starting at A2, B1 and B2 respectively.
Mix 20 mL assay buffer and 20 μL 1M DTT. Add sufficient cathepsin S to give 2 nM final concentration.
Using the a distributor such as a Multidrop 384, add 30 μL/well to all wells of the assay plate and read in fluorescent spectrophotometer such as an Ascent.
Fluorescent readings, (excitation and emission wavelengths 390 nm and 460 nm respectively, set using bandpass filters) reflecting the extent of enzyme cleavage of the fluorescent substrate, […] the inhibitor, are linear rate fitted for each well.
Fitted rates for all wells for each inhibitor are fitted to the competitive inhibition equation using SigmaPlot 2000 to determine V, Km and Ki values.
as §1, §2

The target in experiment [1] is T2, human recombinant cathepsin K (Homo sapiens, UniProt P43235).
T2 construct: made in house; host or cells: not fixed: E coli, Pichia or Baculovirus systems named as options
T2 sequence (P43235 115-329): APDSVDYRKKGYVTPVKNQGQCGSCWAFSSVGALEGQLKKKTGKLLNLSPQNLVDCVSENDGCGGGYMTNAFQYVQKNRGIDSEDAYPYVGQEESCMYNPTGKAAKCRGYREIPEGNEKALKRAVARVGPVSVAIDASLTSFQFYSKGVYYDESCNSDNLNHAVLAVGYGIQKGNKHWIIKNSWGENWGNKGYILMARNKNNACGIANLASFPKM
Nature of the experiment: Determination of cathepsin K proteolytic catalytic activity (Ki). Particulars: fluorogenic substrate H-D-Ala-Leu-Lys-AMC; read-out: Ki Cat. K. As to the method: Convenient assays for cathepsin K are carried out using human recombinant enzyme, such as that described in PDB. • ID BC016058 standard; mRNA; HUM; 1699 BP. • DE Homo sapiens cathepsin K (pycnodysostosis), mRNA (cDNA clone MGC:23107 • RX MEDLINE;. RX PUBMED; 12477932. • DR RZPD; IRALp962G1234. • DR SWISS-PROT; P43235;
The recombinant cathepsin K can be expressed in a variety of commercially available expression systems including E coli, Pichia and Baculovirus systems. The purified enzyme is activated by removal of the prosequence by conventional methods.
Standard assay conditions for the determination of kinetic constants used a fluorogenic peptide substrate, typically H-D-Ala-Leu-Lys-AMC, and were determined in either 100 mM Mes/Tris, pH 7.0 containing 1 mM EDTA and 10 mM 2-mercaptoethanol or 100 mMNa phosphate, imM EDTA, 0.1% PEG4000 pH 6.5 or 100 mM Na acetate, pH 5.5 containing 5 mM EDTA and 20 mM cysteine, in each case optionally with […] as stabiliser. The enzyme concentration used was 5 nM. The stock substrate solution was prepared at 10 mM in DMSO. Screens were carried out at a fixed substrate concentration of 60 μM and detailed kinetic studies with doubling dilutions of substrate from 250 μM. The total DMSO concentration in the assay was kept below 3%. All assays were conducted at ambient temperature. Product fluorescence (excitation at 390 nm, emission at 460 nm) was monitored with a Labsystems Fluoroskan Ascent fluorescent plate reader. Product progress curves were generated over 15 minutes following generation of AMC product.
as §1, §2

pKi: −log10 of the molar value.

Chain of human cathepsin L (P07711 114-333): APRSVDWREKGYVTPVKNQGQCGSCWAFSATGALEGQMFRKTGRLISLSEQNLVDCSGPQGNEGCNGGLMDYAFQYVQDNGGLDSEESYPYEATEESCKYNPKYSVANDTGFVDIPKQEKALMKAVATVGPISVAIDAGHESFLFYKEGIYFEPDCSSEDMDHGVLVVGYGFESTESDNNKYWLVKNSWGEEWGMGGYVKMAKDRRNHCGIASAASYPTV
T1 sequence (P25774 115-331): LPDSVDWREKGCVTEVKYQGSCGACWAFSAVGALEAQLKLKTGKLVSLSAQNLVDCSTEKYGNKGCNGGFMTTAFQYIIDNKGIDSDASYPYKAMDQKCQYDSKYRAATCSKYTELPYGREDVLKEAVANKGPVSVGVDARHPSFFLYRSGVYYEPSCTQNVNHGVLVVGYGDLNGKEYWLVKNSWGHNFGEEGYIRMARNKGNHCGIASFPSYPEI

`NC(=O)C(=O)C1(NC(=O)[C@H](CC2CCC2)NC(=O)C2CC2(F)F)CCC1` (single isomer, unassigned) [Example A43-1]: the negative logarithm of the Ki (pKi) on human cathepsin L was 5.38; on human cathepsin S, 8.89; in experiment [1], 6.55.
Consider `NC(=O)C(=O)[C@]1(NC(=O)[C@H](CC2(F)CCCC2)NC(=O)c2cccc(-n3ccnc3)c2)C[C@H](F)C1` [Example A1, N-[1-(1-Aminooxalyl-3-fluoro-cyclobutylcarbamoyl)-2-(1-fluoro-cyclopentyl)-ethyl]-3-imidazol-1-yl-benzamide], for which the pKi is 6.64 at human cathepsin L, 10.08 at human cathepsin S and 6.30 in experiment [1].
On the same counts, the results for `CC1(C[C@H](NC(=O)C2CC2)C(=O)NC2(C(=O)C(N)=O)CCC2)CCCC1` [Example A2, Cyclopropanecarboxylic acid [1-(1-aminooxalyl-cyclobutylcarbamoyl)-2-(1-methyl-cyclopentyl)-ethyl]-amide] are 5.74, 9.52 and 6.20.
On the same counts, the results for `CC1(C[C@H](NC(=O)c2ccc(F)cc2)C(=O)NC2(C(=O)C(N)=O)CCC2)CCCC1` [Example A3] are 6.74, 10.00 and 6.85.
In the same order, the values of `CCC(=O)N[C@@H](CC1(C)CCCC1)C(=O)NC1(C(=O)C(N)=O)CCC1` [Example A4] are 4.92, 8.31 and 5.64.
Consider `Cc1ccc(C(=O)N[C@@H](CC2(F)CCCC2)C(=O)NC2(C(=O)C(N)=O)CCC2)cn1` [Example A7], for which the pKi on human cathepsin L is 6.59; on human cathepsin S, 9.06; in experiment [1], 6.19.
Consider `NC(=O)C(=O)C1(NC(=O)[C@H](CC2(F)CCCC2)NC(=O)c2ccc(F)cc2F)CCC1` [Example A17], for which the pKi is 6.31 at human cathepsin L, 9.17 on human cathepsin S and 6.31 in experiment [1].
As to `CC1(C[C@H](NC(=O)C(C)(C)C(F)(F)F)C(=O)NC2(C(=O)C(N)=O)CCC2)CCCC1` [Example A24], the negative-log Ki (pKi) was 5.52 at human cathepsin L, 8.92 on human cathepsin S and 6.52 in experiment [1].
As for `NC(=O)C(=O)C1(NC(=O)[C@H](CC2(F)CCCC2)NC(=O)C2(C(F)(F)F)CC2)CCC1` [Example A25], the negative-log Ki (pKi) was 4.85 at human cathepsin L, 8.44 at human cathepsin S and 5.89 in experiment [1].
In the same order, the values of `NC(=O)C(=O)C1(NC(=O)[C@H](CC2(F)CCCC2)NC(=O)C2(C(F)(F)F)CCC2)CCC1` [Example A28] are 4.64, 7.51 and 4.82.
As to `CC1(C[C@H](NC(=O)C(C)(C)F)C(=O)NC2(C(=O)C(N)=O)CC(F)(F)C2)CCCC1` [Example A31], the figures for the pKi (at human cathepsin L; on human cathepsin S; in experiment [1]) were 4.96, 8.64 and 6.00, respectively.
In the same order, the values of `NC(=O)C(=O)C1(NC(=O)[C@H](CC2(F)CCCC2)NC(=O)c2ccccn2)CCC1` [Example A34] are 6.15, 9.11 and 6.74.
`NC(=O)C(=O)C1(NC(=O)[C@H](CC2(F)CCCC2)NC(=O)C2(C(F)(F)F)CC2)CC1` [Example A38]: the pKi was less than 3.70 on human cathepsin L, 8.12 at human cathepsin S and 5.34 in experiment [1].
On to `CC(C)(C)C[C@H](NC(=O)OC(C)(C)C)C(=O)N[C@]1(C(=O)C(N)=O)C[C@@H](F)C1` [Example C1, Tert-butyl(S)-1-((1r,3S)-1-(2-amino-2-oxoacetyl)-3-fluorocyclobutylamino)-4,4-dimethyl-1-oxopentan-2-ylcarbamate], for which the negative logarithm of the Ki (pKi) was 4.96 on human cathepsin L, 7.92 on human cathepsin S and 6.11 in experiment [1].
In the same order, the values of `CC(C)(C)OC(=O)NC(CC1(F)CCCC1)C(=O)NC1(C(=O)C(N)=O)CC(F)C1` (stereo not drawn) [Example C3] are 5.77, 8.89 and 6.36.
Consider `CC1(C[C@H](NC(=O)OC(C)(C)C)C(=O)NC2(C(=O)C(N)=O)CCC2)CCCC1` [Example C4], for which the pKi at human cathepsin L was 5.77; on human cathepsin S, 8.96; in experiment [1], 6.14.
On the same counts, the results for `CCOC(=O)N[C@@H](CC1(F)CCCC1)C(=O)N[C@]1(C(=O)C(N)=O)C[C@@H](F)C1` [Example C5, [1-(1-Aminooxalyl-3-fluoro-cyclobutylcarbamoyl)-2-(1-fluoro-cyclopentyl)-ethyl]-carbamic acid ethyl ester] are 5.28, 8.55 and 5.96.
As to `CCOC(=O)NC(CC1(F)CCCC1)C(=O)NC1(C(=O)C(N)=O)CCC1` (stereo not drawn) [Example C6, [1-(1-Aminooxalyl-cyclobutylcarbamoyl)-2-(1-fluorocyclopentyl)-ethyl]-carbamic acid ethyl ester], the pKi on human cathepsin L was 5.43; on human cathepsin S, 8.62; in experiment [1], 6.02.
In the same order, the values of `CCOC(=O)N[C@@H](CC1(F)CCCC1)C(=O)NC1(C(=O)C(N)=O)CCCC1` [Example C7, (S)-ethyl(1-((1-(2-amino-2-oxoacetyl)cyclopentyl)amino)-3-(1-fluorocyclopentyl)-1-oxopropan-2-yl)carbamate] are 4.68, 8.19 and 5.60.
In the same order, the values of `CC(C)(C)OC(=O)N[C@@H](CC1(F)CCCC1)C(=O)NC1(C(=O)C(N)=O)CC1` [Example C11] are 5.59, 8.43 and 5.92.
With `CC1(C[C@H](NC(=O)OC(C)(C)C)C(=O)NC2(C(=O)C(N)=O)CC2)CCCC1` [Example C12], the values for the pKi (on human cathepsin L; at human cathepsin S; in experiment [1]) were 5.49, 8.57 and 5.72, respectively.

A word on the pKi: it is −log10 of the Ki, conventionally taken in molar units.
